Earlier results on 1 compound are cited in EP1939174A1, “Inclusion complex of ezetimibe and a cyclodextrin and processes in the preparation thereof” (LEK Pharmaceuticals d.d., priority 2006, dated 2008).

Take `O=C1[C@H](CC[C@H](O)c2ccc(F)cc2)[C@@H](c2ccc(O)cc2)N1c1ccc(F)cc1` [Ezetimibe, 1-4(fluorophenyl)-3-(R)-[3-(4-fluorophenyl)-3-(S)-hydroxypropyl]-4-(S)-(4-hydroxyphenyl)-2-azetidinone]: the “solubility in alcohols and acetone” value (in alcohols and acetone) is given as “freely soluble”. Where the note is “in water”, the solubility in water result was “practically insoluble”.
